Laboratory results from PubChem BioAssay AID248 (DTP/NCI, 2004).
Where “and” joins values, the source holds several entries; their conditions need not be identical. Identical values can stand only once. Toxic doses and inconclusive results are not listed. No stated cut-off is given here; in the data, active means T/C of 150% or more; inactive means T/C below 125%.

Tested on: L1210 leukemia ip in BDF1 mice, survival T/C
Test: NCI In Vivo Anticancer Drug Screen. Data for tumor model L1210 Leukemia (intraperitoneal) in B6D2F1 (BDF1) mice
Settings: endpoint: mean survival time, higher = longer survival
In short: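 Antitumor effect is assessed in tumor-bearing animals. Survival in the compound arm is compared with a vehicle-dosed control arm and expressed as their quotient.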

[1] = dose: 100.0 mg/kg/injection, schedule: Q04DX003 (ip), vehicle: saline
[2] = dose: 200.0 mg/kg/injection, schedule: Q04DX003 (ip), vehicle: saline
[3] = dose: 400.0 mg/kg/injection, schedule: Q04DX003 (ip), vehicle: saline
[4] = dose: 100.0 mg/kg/injection, schedule: Q04DX003 (ip), vehicle: acetone
[5] = dose: 200.0 mg/kg/injection, schedule: Q04DX003 (ip), vehicle: acetone
[6] = dose: 400.0 mg/kg/injection, schedule: Q04DX003 (ip), vehicle: acetone
[7] = dose: 100.0 mg/kg/injection, schedule: Q01DX001 (ip), vehicle: saline with Tween-80
[8] = dose: 200.0 mg/kg/injection, schedule: Q01DX001 (ip), vehicle: saline with Tween-80
[9] = dose: 400.0 mg/kg/injection, schedule: Q01DX001 (ip), vehicle: saline with Tween-80
[10] = dose: 100.0 mg/kg/injection, schedule: Q04DX002 (ip), vehicle: saline with Tween-80
[11] = dose: 200.0 mg/kg/injection, schedule: Q04DX002 (ip), vehicle: saline with Tween-80
[12] = dose: 100.0 mg/kg/injection, schedule: Q04DX002 (ip), vehicle: Klucel (hydroxypropylcellulose) (HPC)
[13] = dose: 200.0 mg/kg/injection, schedule: Q04DX002 (ip), vehicle: Klucel (hydroxypropylcellulose) (HPC)
[14] = dose: 100.0 mg/kg/injection, schedule: Q01DX009 (ip), vehicle: saline
[15] = dose: 200.0 mg/kg/injection, schedule: Q01DX009 (ip), vehicle: saline
[16] = dose: 12.5 mg/kg/injection, schedule: Q04DX003 (ip), vehicle: saline with Tween-80
[17] = dose: 100.0 mg/kg/injection, schedule: Q01DX001 (ip), vehicle: saline
[18] = dose: 400.0 mg/kg/injection, schedule: Q04DX002 (ip), vehicle: Klucel (hydroxypropylcellulose) (HPC)

Measured: T/C

CNC(=O)CCC(=O)NC
inactive: dose: 75.0 mg/kg/injection, schedule: Q04DX003 (ip), vehicle: saline 95 % of control | [1] 100 % of control | dose: 150.0 mg/kg/injection, schedule: Q04DX003 (ip), vehicle: saline 98 % of control | [2] 102 % of control | dose: 300.0 mg/kg/injection, schedule: Q04DX003 (ip), vehicle: saline 95 % of control | [3] 111 % of control

CC(O)c1cccc(N(C)C)c1 (stereo not drawn)
inactive: dose: 50.0 mg/kg/injection, schedule: Q01DX009 (ip), vehicle: acetone 93 % of control | dose: 100.0 mg/kg/injection, schedule: Q01DX009 (ip), vehicle: acetone 95 % of control | [4] 96 % of control | dose: 200.0 mg/kg/injection, schedule: Q01DX009 (ip), vehicle: acetone 93 % of control | [5] 96 % of control | [6] 101 % of control

CN(C)C(=O)Nc1ccc([N+](=O)[O-])cc1[N+](=O)[O-]
inactive: [7] 96 % of control | [8] 89 % of control | [9] 94 % of control | dose: 800.0 mg/kg/injection, schedule: Q04DX002 (ip), vehicle: saline with Tween-80 104 % of control and 107 % of control

C(#[C][Sn]([c]1ccccc1)([c]1ccccc1)[c]1ccccc1)c1ccccc1
inactive: dose: 25.0 mg/kg/injection, schedule: Q04DX002 (ip), vehicle: Klucel (hydroxypropylcellulose) (HPC) 97 % of control | dose: 50.0 mg/kg/injection, schedule: Q04DX002 (ip), vehicle: Klucel (hydroxypropylcellulose) (HPC) 90 % of control

OCCCc1cc(Cl)ccc1O
inactive: dose: 50.0 mg/kg/injection, schedule: Q01DX001 (ip), vehicle: carboxymethylcellulose (CMC) 100 % of control | dose: 100.0 mg/kg/injection, schedule: Q01DX001 (ip), vehicle: carboxymethylcellulose (CMC) 100 % of control | dose: 200.0 mg/kg/injection, schedule: Q01DX001 (ip), vehicle: carboxymethylcellulose (CMC) 94 % of control | dose: 400.0 mg/kg/injection, schedule: Q01DX001 (ip), vehicle: carboxymethylcellulose (CMC) 92 % of control

CC1CC(C(=O)O)Cc2c1nc1ccccc1c2C(=O)O (stereo not drawn)
inactive: [10] 100 % of control | [11] 93 % of control | dose: 400.0 mg/kg/injection, schedule: Q04DX002 (ip), vehicle: saline with Tween-80 96 % of control

COc1ccc(C(C)=O)c(OC)c1C
inactive: [1] 95 % of control | [2] 90 % of control | [3] 98 % of control

CCC(C#N)C1C=CCCC1 (stereo not drawn)
inactive: dose: 75.0 mg/kg/injection, schedule: Q01DX001 (ip), vehicle: other 107 % of control | dose: 150.0 mg/kg/injection, schedule: Q01DX001 (ip), vehicle: other 107 % of control

CN(C)C(=S)Oc1ccc(OC(=S)N(C)C)cc1
inactive: dose: 100.0 mg/kg/injection, schedule: Q04DX003 (ip), vehicle: saline with Tween-80 100 % of control | dose: 200.0 mg/kg/injection, schedule: Q04DX003 (ip), vehicle: saline with Tween-80 95 % of control | dose: 400.0 mg/kg/injection, schedule: Q04DX003 (ip), vehicle: saline with Tween-80 100 % of control

Nc1nc(N=Nc2ccc(O)cc2)cc(=O)[nH]1
inactive: dose: 50.0 mg/kg/injection, schedule: Q01DX009 (ip), vehicle: other 102 % of control | dose: 100.0 mg/kg/injection, schedule: Q01DX009 (ip), vehicle: other 107 % of control | dose: 100.0 mg/kg/injection, schedule: Q04DX002 (ip), vehicle: other 105 % of control | dose: 200.0 mg/kg/injection, schedule: Q01DX009 (ip), vehicle: other 94 % of control | dose: 200.0 mg/kg/injection, schedule: Q04DX002 (ip), vehicle: other 105 % of control | dose: 400.0 mg/kg/injection, schedule: Q01DX009 (ip), vehicle: other 103 % of control | dose: 400.0 mg/kg/injection, schedule: Q04DX002 (ip), vehicle: other 99 % of control

O=C(CCC(=O)c1ccccc1)OCc1ccccc1
inactive: [12] 96 % of control | [13] 86 % of control

CC(=O)OC1COC(SC(=N)N)C(OC(C)=O)C1OC(C)=O (stereo not drawn)
inactive: dose: 75.0 mg/kg/injection, schedule: Q01DX001 (ip), vehicle: water 101 % of control and 104 % of control | dose: 150.0 mg/kg/injection, schedule: Q01DX001 (ip), vehicle: water 104 % of control and 103 % of control | dose: 300.0 mg/kg/injection, schedule: Q01DX001 (ip), vehicle: water 97 % of control and 95 % of control

CCN(CC)CCOc1ccc(/C=C2\CCc3ccccc3C2=O)cc1
inactive: dose: 25.0 mg/kg/injection, schedule: Q01DX007 (ip), vehicle: saline 104 % of control | dose: 50.0 mg/kg/injection, schedule: Q01DX007 (ip), vehicle: saline 102 % of control | dose: 50.0 mg/kg/injection, schedule: Q04DX003 (ip), vehicle: saline 95 % of control | dose: 100.0 mg/kg/injection, schedule: Q01DX007 (ip), vehicle: saline 96 % of control | [1] 95 % of control

NC(=O)c1cc(Cl)ccn1
inactive: [10] 101 % of control | [11] 99 % of control

COc1nsc(N)n1
inactive: [7] 100 % of control | [8] 104 % of control | [9] 91 % of control

CCOC(CN)OCC
inactive: [14] 114 % of control | [1] 112 % of control | [15] 107 % of control | [2] 102 % of control | dose: 400.0 mg/kg/injection, schedule: Q01DX009 (ip), vehicle: saline 106 % of control | [3] 97 % of control

COc1cc(N)ccn1
inactive: [4] 95 % of control | [5] 94 % of control | [6] 94 % of control

O=C(Nc1ccccc1)Nc1ccccn1
inactive: [16] 95 % of control | dose: 25.0 mg/kg/injection, schedule: Q04DX003 (ip), vehicle: saline with Tween-80 95 % of control

CC(=O)NC1=C(NC(C)C)C(=O)c2ccccc2C1=O
inactive: [16] 94 % of control

Cc1ccccc1OCC(=O)O
inactive: dose: 50.0 mg/kg/injection, schedule: Q01DX009 (ip), vehicle: saline with Tween-80 107 % of control | dose: 50.0 mg/kg/injection, schedule: Q01DX009 (ip), vehicle: saline 107 % of control | dose: 100.0 mg/kg/injection, schedule: Q01DX009 (ip), vehicle: saline with Tween-80 98 % of control | [14] 98 % of control | dose: 100.0 mg/kg/injection, schedule: Q04DX003 (ip), vehicle: gum acacia 98 % of control | dose: 200.0 mg/kg/injection, schedule: Q01DX009 (ip), vehicle: saline with Tween-80 98 % of control | [15] 98 % of control | dose: 200.0 mg/kg/injection, schedule: Q04DX003 (ip), vehicle: gum acacia 94 % of control | dose: 400.0 mg/kg/injection, schedule: Q04DX003 (ip), vehicle: gum acacia 93 % of control

CC(C)NCC1CCCCO1 (stereo not drawn)
inactive: dose: 55.0 mg/kg/injection, schedule: Q01DX Z (ip), vehicle: methylcellulose (MC) 91 % of control | dose: 83.0 mg/kg/injection, schedule: Q01DX Z (ip), vehicle: methylcellulose (MC) 88 % of control | dose: 125.0 mg/kg/injection, schedule: Q01DX Z (ip), vehicle: methylcellulose (MC) 100 % of control

CCOC(=O)C(O)(CC)c1cc[n+](Cc2cc3ccccc3nc2Cl)cc1C (stereo not drawn)
inactive: dose: 50.0 mg/kg/injection, schedule: Q01DX001 (ip), vehicle: saline 115 % of control | [17] 94 % of control

CC12CCC(C1)C(C)(C)/C2=N\O (stereo not drawn)
inactive: dose: 100.0 mg/kg/injection, schedule: Q01DX009 (ip), vehicle: Klucel (hydroxypropylcellulose) (HPC) 96 % of control | [12] 100 % of control | dose: 200.0 mg/kg/injection, schedule: Q01DX009 (ip), vehicle: Klucel (hydroxypropylcellulose) (HPC) 88 % of control | [13] 96 % of control | dose: 400.0 mg/kg/injection, schedule: Q01DX009 (ip), vehicle: Klucel (hydroxypropylcellulose) (HPC) 92 % of control | [18] 96 % of control

CCCCCCCCCCCCCc1nc(N)nc(N2CCOCC2)n1
inactive: [12] 92 % of control | [13] 95 % of control | [18] 92 % of control

CC(C)(CO)C(O)C(=O)NCCC(=O)c1ccccc1 (stereo not drawn)
inactive: [17] 103 % of control | dose: 200.0 mg/kg/injection, schedule: Q01DX001 (ip), vehicle: saline 92 % of control | dose: 400.0 mg/kg/injection, schedule: Q01DX001 (ip), vehicle: saline 103 % of control
